Source: patent US20240067693A1, “POLYPEPTIDES AND USES THEREOF” (MEDIMMUNE LIMITED, priority 2020, published 2024)
Numbered stars: 1 amine (or outer) side, 2 acyl side, 3 side chain; on linkers, the order of the positions; unused ones are H or OH. Bridge positions count the residues as written; N and C are the ends. Square brackets hold non-standard residues; d marks the D form. Side chains are listed from the residue outwards. Peptide text beside a SMILES is read from it. * marks the point of attachment. C18 diacid = O=C(O)CCCCCCCCCCCCCCCCC(=O)*; γGlu = O=C(O)[C@H](CCC(=O)[*:2])N[*:1]; Aib = CC(C)(N)C(=O)O

Key:
[1] = molecular target: T1, human amylin receptor (calcitonin receptor co-expressed with receptor activity modifying protein, RAMP3) (hAMYR3) (Homo sapiens, UniProt O60896+P30988); experiment: cAMP production in 1321N1 cells with stable recombinant expression of human amylin receptor (hAMYR3); type: cell-based; conditions: for Ratio (selectivity hAMYR vs hCTR, ratio of EC50 values at the two receptors): EC50 hCTR / EC50 hAMYR3; for EC50: cAMP, 1321N1 cells, assay buffer with 0.1% BSA, read-out: EC50 (pM) hAMYR3
T1 construct: expressed in transfected cells
T1 sequence (P30988 25-474): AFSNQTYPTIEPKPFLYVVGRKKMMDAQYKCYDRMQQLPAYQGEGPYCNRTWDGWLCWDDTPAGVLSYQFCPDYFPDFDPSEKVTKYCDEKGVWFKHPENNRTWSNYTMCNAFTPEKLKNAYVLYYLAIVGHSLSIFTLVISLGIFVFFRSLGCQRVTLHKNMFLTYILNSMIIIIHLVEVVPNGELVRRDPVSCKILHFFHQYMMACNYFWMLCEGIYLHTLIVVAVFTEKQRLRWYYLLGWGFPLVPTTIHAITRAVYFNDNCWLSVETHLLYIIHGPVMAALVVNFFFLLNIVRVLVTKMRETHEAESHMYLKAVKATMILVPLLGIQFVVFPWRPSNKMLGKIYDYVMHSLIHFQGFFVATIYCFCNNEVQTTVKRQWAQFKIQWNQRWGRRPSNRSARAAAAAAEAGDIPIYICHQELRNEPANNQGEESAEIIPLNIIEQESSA
T1 sequence (O60896 24-148 partner): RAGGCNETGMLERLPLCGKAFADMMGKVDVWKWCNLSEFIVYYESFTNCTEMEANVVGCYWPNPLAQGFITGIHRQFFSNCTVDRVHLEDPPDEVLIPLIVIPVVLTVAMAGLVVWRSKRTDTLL
Method in brief: (§1)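 EC50 values come from 4-parameter logistic fits of HTRF cAMP signal, normalised to maximal calcitonin or amylin effect. Peptides were tested in duplicate for 30 min at RT in IBMX-containing (0.5 mM) BSA/HEPES buffer pH 7.4 on stable 1321N1 (human CTR, AMYR3) or HEK (rat CTR, AMYR3) lines.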

[2] = molecular target: T2, human calcitonin receptor (hCTR) (Homo sapiens, UniProt P30988); experiment: cAMP production in 1321N1 cells with stable recombinant expression of human calcitonin receptor (hCTR); type: cell-based; conditions: cAMP, 1321N1 cells, assay buffer with 0.1% BSA; read-out: EC50 (pM) hCTR
T2 construct: expressed in transfected cells
T2 sequence (P30988 25-474): T1 sequence (P30988 25-474)
Method in brief: as §1

Structure (SMILES) | Ratio (selectivity hAMYR vs hCTR, ratio of EC50 values at the two receptors) [1] | EC50 [1] | EC50 [2]
CC[C@H](C)[C@H](NC(=O)[C@@H]1CCCN1C(=O)CNC(=O)[C@H](Cc1ccccc1)NC(=O)[C@H](CC(N)=O)NC(=O)C(C)(C)NC(=O)[C@H](CO)NC(=O)[C@H](CO)NC(=O)[C@H](Cc1c[nH]cn1)NC(=O)[C@@H](NC(=O)[C@H](CC(C)C)NC(=O)[C@H](Cc1ccccc1)NC(=O)[C@H](CC(N)=O)NC(=O)[C@H](C)NC(=O)[C@H](CC(C)C)NC(=O)[C@H](CCCNC(=N)N)NC(=O)[C@H](CCC(N)=O)NC(=O)[C@@H](NC(=O)[C@H](C)NC(=O)[C@@H]1CSSC[C@H](NC(=O)[C@H](CCCCN)NC(=O)[C@@H](N)CCCCNC(=O)CC[C@H](NC(=O)CCCCCCCCCCCCCCCCC(=O)O)C(=O)O)C(=O)N[C@@H](CC(N)=O)C(=O)N[C@@H]([C@@H](C)O)C(=O)N[C@@H](C)C(=O)N[C@@H]([C@@H](C)O)C(=O)N1)[C@@H](C)O)C(C)C)C(=O)N[C@@H](CC(C)C)C(=O)N1CCC[C@H]1C(=O)N1CCC[C@H]1C(=O)N[C@H](C(=O)N[C@@H](CC(N)=O)C(=O)N[C@H](C(=O)NC(C)(C)C(=O)N[C@@H](CO)C(=O)N[C@@H](CC(N)=O)C(=O)N[C@H](C(=O)N[C@@H](Cc1ccc(O)cc1)C(N)=O)[C@@H](C)O)C(C)C)[C@@H](C)O [Peptide 81, K(γE-C18diacid)K[CNTATC]ATQRLANFLVHSS(Aib)NFGPILPPTNV(Aib)SNTY-amide] (H-K([γGlu-C18 diacid])KCNTATCATQRLANFLVHSS[Aib]NFGPILPPTNV[Aib]SNTY-NH2; disulfide 3-8; N-terminus assumed) | 7 | 404 pM | 2760 pM
CC[C@H](C)[C@H](NC(=O)[C@@H]1CCCN1C(=O)CNC(=O)[C@H](Cc1ccccc1)NC(=O)[C@H](CC(N)=O)NC(=O)C(C)(C)NC(=O)[C@H](CO)NC(=O)[C@H](CO)NC(=O)[C@H](Cc1c[nH]cn1)NC(=O)[C@@H](NC(=O)[C@H](CC(C)C)NC(=O)[C@H](Cc1ccccc1)NC(=O)[C@H](CC(N)=O)NC(=O)[C@H](C)NC(=O)[C@H](CC(C)C)NC(=O)[C@H](CCCNC(=N)N)NC(=O)[C@H](CCC(N)=O)NC(=O)[C@@H](NC(=O)[C@H](C)NC(=O)[C@@H]1CSSC[C@H](NC(=O)[C@H](CCCCN)NC(=O)[C@@H](N)CCCCNC(=O)CC[C@H](NC(=O)CCCCCCCCCCCCCCCCC(=O)O)C(=O)O)C(=O)N[C@@H](CC(N)=O)C(=O)N[C@@H]([C@@H](C)O)C(=O)N[C@@H](C)C(=O)N[C@@H]([C@@H](C)O)C(=O)N1)[C@@H](C)O)C(C)C)C(=O)N[C@@H](CC(C)C)C(=O)N1CCC[C@H]1C(=O)N1CCC[C@H]1C(=O)N[C@H](C(=O)N[C@@H](CC(N)=O)C(=O)N[C@H](C(=O)NCC(=O)N[C@@H](CO)C(=O)NC(C)(C)C(=O)N[C@H](C(=O)N[C@@H](Cc1ccc(O)cc1)C(N)=O)[C@@H](C)O)C(C)C)[C@@H](C)O [Peptide 82, K(γE-C18diacid)K[CNTATC]ATQRLANFLVHSS(Aib)NFGPILPPTNVGS(Aib)TY-amide] (H-K([γGlu-C18 diacid])KCNTATCATQRLANFLVHSS[Aib]NFGPILPPTNVGS[Aib]TY-NH2; disulfide 3-8) | 8 | 514 pM | 4280 pM
CC[C@H](C)[C@H](NC(=O)[C@@H]1CCCN1C(=O)CNC(=O)[C@H](Cc1ccccc1)NC(=O)[C@H](CC(N)=O)NC(=O)C(C)(C)NC(=O)[C@H](CO)NC(=O)[C@H](CO)NC(=O)[C@H](Cc1c[nH]cn1)NC(=O)[C@@H](NC(=O)[C@H](CC(C)C)NC(=O)[C@H](Cc1ccccc1)NC(=O)[C@H](CC(N)=O)NC(=O)[C@H](C)NC(=O)[C@H](CC(C)C)NC(=O)[C@H](CCCNC(=N)N)NC(=O)[C@H](CCC(N)=O)NC(=O)[C@@H](NC(=O)[C@H](C)NC(=O)[C@@H]1CSSC[C@H](NC(=O)[C@H](CCCCN)NC(=O)[C@@H](N)CCCCNC(=O)CC[C@H](NC(=O)CCCCCCCCCCCCCCCCC(=O)O)C(=O)O)C(=O)N[C@@H](CC(N)=O)C(=O)N[C@@H]([C@@H](C)O)C(=O)N[C@@H](C)C(=O)N[C@@H]([C@@H](C)O)C(=O)N1)[C@@H](C)O)C(C)C)C(=O)N[C@@H](CC(C)C)C(=O)N1CCC[C@H]1C(=O)N1CCC[C@H]1C(=O)N[C@H](C(=O)N[C@@H](CC(N)=O)C(=O)N[C@H](C(=O)NCC(=O)N[C@@H](CO)C(=O)N[C@@H](CC(N)=O)C(=O)NC(C)(C)C(=O)N[C@@H](Cc1ccc(O)cc1)C(N)=O)C(C)C)[C@@H](C)O [Peptide 83, K(γE-C18diacid)K[CNTATC]ATQRLANFLVHSS(Aib)NFGPILPPTNVGSN(Aib)Y-amide] (H-K([γGlu-C18 diacid])KCNTATCATQRLANFLVHSS[Aib]NFGPILPPTNVGSN[Aib]Y-NH2; disulfide 3-8; N-terminus assumed) | 11 | 599 pM | 6340 pM

Other lines, results leading:

Ratio (selectivity hAMYR vs hCTR, ratio of EC50 values at the two receptors) [1] | EC50 [1] | EC50 [2] | Structure (SMILES)
3 | 118 pM | 401 pM | CC[C@H](C)[C@H](NC(=O)[C@@H]1CCCN1C(=O)CNC(=O)[C@H](Cc1ccccc1)NC(=O)[C@H](CC(N)=O)NC(=O)C(C)(C)NC(=O)[C@H](CO)NC(=O)[C@H](CO)NC(=O)[C@H](Cc1c[nH]cn1)NC(=O)[C@@H](NC(=O)[C@H](CC(C)C)NC(=O)[C@H](Cc1ccccc1)NC(=O)[C@H](CC(N)=O)NC(=O)[C@H](C)NC(=O)[C@H](CC(C)C)NC(=O)[C@H](CCCNC(=N)N)NC(=O)[C@H](CCC(N)=O)NC(=O)[C@@H](NC(=O)[C@H](C)NC(=O)[C@@H]1CSSC[C@H](NC(=O)[C@H](CCCCN)NC(=O)[C@@H](N)CCCCNC(=O)CC[C@H](NC(=O)CCCCCCCCCCCCCCCCC(=O)O)C(=O)O)C(=O)N[C@@H](CC(N)=O)C(=O)N[C@@H]([C@@H](C)O)C(=O)N[C@@H](C)C(=O)N[C@@H]([C@@H](C)O)C(=O)N1)[C@@H](C)O)C(C)C)C(=O)N[C@@H](CC(C)C)C(=O)N1CCC[C@H]1C(=O)N1CCC[C@H]1C(=O)N[C@H](C(=O)N[C@@H](CC(N)=O)C(=O)N[C@H](C(=O)NCC(=O)NC(C)(C)C(=O)N[C@@H](CC(N)=O)C(=O)N[C@H](C(=O)N[C@@H](Cc1ccc(O)cc1)C(N)=O)[C@@H](C)O)C(C)C)[C@@H](C)O [Peptide 84, K(γE-C18diacid)K[CNTATC]ATQRLANFLVHSS(Aib)NFGPILPPTNVG(Aib)NTY-amide] (H-K([γGlu-C18 diacid])KCNTATCATQRLANFLVHSS[Aib]NFGPILPPTNVG[Aib]NTY-NH2; disulfide 3-8; N-terminus assumed)
4 | 806 pM | 3100 pM | CC[C@H](C)[C@H](NC(=O)[C@@H]1CCCN1C(=O)CNC(=O)[C@H](Cc1ccccc1)NC(=O)[C@H](CC(N)=O)NC(=O)C(C)(C)NC(=O)[C@H](CO)NC(=O)[C@H](CO)NC(=O)[C@H](Cc1c[nH]cn1)NC(=O)[C@@H](NC(=O)[C@H](CC(C)C)NC(=O)[C@H](Cc1ccccc1)NC(=O)[C@H](CC(N)=O)NC(=O)[C@H](C)NC(=O)[C@H](CC(C)C)NC(=O)[C@H](CCCNC(=N)N)NC(=O)[C@H](CCC(N)=O)NC(=O)[C@@H](NC(=O)[C@H](C)NC(=O)[C@@H]1CSSC[C@H](NC(=O)[C@H](CCCCN)NC(=O)[C@@H](N)CCCCNC(=O)CC[C@H](NC(=O)CCCCCCCCCCCCCCCCC(=O)O)C(=O)O)C(=O)N[C@@H](CC(N)=O)C(=O)N[C@@H]([C@@H](C)O)C(=O)N[C@@H](C)C(=O)N[C@@H]([C@@H](C)O)C(=O)N1)[C@@H](C)O)C(C)C)C(=O)N[C@@H](CC(C)C)C(=O)N1CCC[C@H]1C(=O)N1CCC[C@H]1C(=O)N[C@H](C(=O)N[C@@H](CC(N)=O)C(=O)N[C@H](C(=O)NCC(=O)N[C@@H](CO)C(=O)N[C@@H](CC(N)=O)C(=O)N[C@H](C(=O)NC(C)(C)C(N)=O)[C@@H](C)O)C(C)C)[C@@H](C)O [Peptide 85, K(γE-C18diacid)K[CNTATC]ATQRLANFLVHSS(Aib)NFGPILPPTNVGSNT(Aib)-amide] (H-K([γGlu-C18 diacid])KCNTATCATQRLANFLVHSS[Aib]NFGPILPPTNVGSNT[Aib]-NH2; disulfide 3-8; N-terminus assumed)
